# In patent US20260262643A1, “HERBICIDAL BENZOXAZINES” (FMC CORPORATION, priority 2022, published 2026):
# Experiments:
# [1] = test system: wheat; test: Test A postemergence; assay type: in vivo, Triticum aestivum
# Procedure, shortened: (§1)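 Greenhouse pot test, 10 days. Compound (non-phytotoxic solvent, surfactant) sprayed on soil at seeding or on seedlings at one- to two-leaf stage. Visual injury rated 0–100 against untreated plants.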
# [2] = test system: goosegrass; test: Test A preemergence; assay type: in vivo, Eleusine indica
# Procedure, shortened: as §1
# [3] = test system: galium; test: Test A postemergence; assay type: in vivo, Galium aparine
# Procedure, shortened: as §1
# [4] = test system: pigweed, palmer; test: Test A preemergence; assay type: in vivo, Amaranthus palmeri
# Procedure, shortened: as §1
# [5] = test system: sedge, umbrella; test: Test B flooded paddy test; assay type: in vivo, Cyperus difformis; settings: 250 g ai/ha, Flood, 13 days, 0 to 100 scale (0 no effect, 100 complete control)
# Procedure, shortened: (§2)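 Plants at the 2-leaf stage were flooded to 3 cm above the soil, and test compounds were applied directly into the paddy water, with that depth held throughout. After 13 days in a greenhouse, injury was rated visually against untreated controls on a 0–100 scale (100 = complete control).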
# [6] = test system: ryegrass, Italian; test: Test A postemergence; assay type: in vivo, Lolium multiflorum
# Procedure, shortened: as §1
# [7] = test system: ragweed; test: Test A postemergence; assay type: in vivo, Ambrosia artemisiifolia
# Procedure, shortened: as §1
# [8] = test system: ducksalad; test: Test B flooded paddy test; assay type: in vivo, Heteranthera limosa; settings: 250 g ai/ha, Flood, 13 days, 0 to 100 scale (0 no effect, 100 complete control)
# Procedure, shortened: as §2
# [9] = test system: ryegrass, Italian; test: Test A preemergence; assay type: in vivo, Lolium multiflorum
# Procedure, shortened: as §1
# [10] = test system: oat, wild; test: Test A preemergence; assay type: in vivo, Avena fatua
# Procedure, shortened: as §1
# [11] = test system: corn; test: Test A preemergence; assay type: in vivo, Zea mays
# Procedure, shortened: as §1
# [12] = test system: soybean; test: Test A preemergence; assay type: in vivo, Glycine max
# Procedure, shortened: as §1
# [13] = test system: ragweed; test: Test A preemergence; assay type: in vivo, Ambrosia artemisiifolia
# Procedure, shortened: as §1
# [14] = test system: corn; test: Test A postemergence; assay type: in vivo, Zea mays
# Procedure, shortened: as §1
# [15] = test system: horseweed; test: Test A postemergence; assay type: in vivo, Erigeron canadensis
# Procedure, shortened: as §1
# [16] = test system: soybean; test: Test A postemergence; assay type: in vivo, Glycine max
# Procedure, shortened: as §1
# [17] = test system: foxtail, giant; test: Test A preemergence; assay type: in vivo, Setaria faberi
# Procedure, shortened: as §1
# [18] = test system: foxtail, giant; test: Test A postemergence; assay type: in vivo, Setaria faberi
# Procedure, shortened: as §1
# [19] = test system: blackgrass; test: Test A postemergence; assay type: in vivo, Alopecurus myosuroides
# Procedure, shortened: as §1
# [20] = test system: kochia; test: Test A preemergence; assay type: in vivo, Bassia scoparia
# Procedure, shortened: as §1
# [21] = test system: wheat; test: Test A preemergence; assay type: in vivo, Triticum aestivum
# Procedure, shortened: as §1
# [22] = test system: pigweed, palmer; test: Test A postemergence; assay type: in vivo, Amaranthus palmeri
# Procedure, shortened: as §1
# [23] = test system: kochia; test: Test A postemergence; assay type: in vivo, Bassia scoparia
# Procedure, shortened: as §1
# [24] = test system: oat, wild; test: Test A postemergence; assay type: in vivo, Avena fatua
# Procedure, shortened: as §1
# [25] = test system: rice; test: Test B flooded paddy test; assay type: in vivo, Oryza sativa; settings: 250 g ai/ha, Flood, 13 days, 0 to 100 scale (0 no effect, 100 complete control)
# Procedure, shortened: as §2
# [26] = test system: blackgrass; test: Test A preemergence; assay type: in vivo, Alopecurus myosuroides
# Procedure, shortened: as §1
# [27] = test system: goosegrass; test: Test A postemergence; assay type: in vivo, Eleusine indica
# Procedure, shortened: as §1
# [28] = test system: barnyardgrass; test: Test B flooded paddy test; assay type: in vivo, Echinochloa crus-galli; settings: 250 g ai/ha, Flood, 13 days, 0 to 100 scale (0 no effect, 100 complete control)
# Procedure, shortened: as §2
# [29] = 500 g ai/ha, Postemergence, 0 to 100 scale
# [30] = 125 g ai/ha, visual injury after 10 days, 0 to 100 scale, 0 is no effect, 100 is complete control
# [31] = 500 g ai/ha, 0 to 100 scale (0 no effect, 100 complete control), 10 days
# [32] = 125 g ai/ha, postemergence, 10 days, visual injury, 0 to 100 scale (0 no effect, 100 complete control)
# [33] = 125 g ai/ha, postemergence, 10 days, 0 to 100 scale, 0 no effect, 100 complete control
# [34] = 500 g ai/ha, postemergence, 10 days, visual injury, 0 to 100 scale (0 no effect, 100 complete control)
smiles,measurement,setting,value
Cc1cccc2c1O[C@@H](C)CN2C(=O)c1cccc(-n2cnc(C(C)(C)C)n2)c1 [Compound 65],"Plant response rating, Wheat",[1]; [29],20
same,"Plant response rating, Goosegrass",[2]; [30],100
same,"Plant response rating, Goosegrass",[2]; [31],100
same,"Plant response rating, Galium",[3]; [32],100
same,"Plant response rating, Galium",[3]; [29],100
same,"Plant response rating, Pigweed, Palmer",[4]; [30],90
same,"Plant response rating, Pigweed, Palmer",[4]; [31],100
same,"Plant response rating, Sedge, Umbrella",[5],95
same,"Plant response rating, Ryegrass, Italian",[6]; [29],100
same,"Plant response rating, Ragweed",[7]; [29],80
same,"Plant response rating, Ducksalad",[8],45
same,"Plant response rating, Ryegrass, Italian",[9]; [30],100
same,"Plant response rating, Ryegrass, Italian",[9]; [31],100
same,"Plant response rating, Oat, Wild",[10]; [30],70
same,"Plant response rating, Oat, Wild",[10]; [31],80
same,"Plant response rating, Corn",[11]; [30],40
same,"Plant response rating, Corn",[11]; [31],50
same,"Plant response rating, Soybean",[12]; [30],30
same,"Plant response rating, Soybean",[12]; [31],90
same,"Plant response rating, Ragweed",[13]; [30],0
same,"Plant response rating, Ragweed",[13]; [31],40
same,"Plant response rating, Corn",[14]; [32],10
same,"Plant response rating, Corn",[14]; [29],70
same,"Plant response rating, Horseweed",[15]; [32],0
same,"Plant response rating, Horseweed",[15]; [29],20
same,"Plant response rating, Soybean",[16]; [29],100
same,"Plant response rating, Foxtail, Giant",[17]; [30],100
same,"Plant response rating, Foxtail, Giant",[17]; [31],100
same,"Plant response rating, Foxtail, Giant",[18]; [32],10
same,"Plant response rating, Foxtail, Giant",[18]; [29],50
same,"Plant response rating, Blackgrass",[19]; [32],30
same,"Plant response rating, Blackgrass",[19]; [29],80
same,"Plant response rating, Kochia",[20]; [30],80
same,"Plant response rating, Kochia",[20]; [31],100
same,"Plant response rating, Wheat",[21]; [30],40
same,"Plant response rating, Wheat",[21]; [31],70
same,"Plant response rating, Pigweed, Palmer",[22]; [29],70
same,"Plant response rating, Kochia",[23]; [32],60
same,"Plant response rating, Kochia",[23]; [29],90
same,"Plant response rating, Oat, Wild",[24]; [29],20
same,"Plant response rating, Rice",[25],0
same,"Plant response rating, Blackgrass",[26]; [30],80
same,"Plant response rating, Blackgrass",[26]; [31],90
same,"Plant response rating, Goosegrass",[27]; [32],10
same,"Plant response rating, Goosegrass",[27]; [29],40
same,"Plant response rating, Barnyardgrass",[28],0
CCc1ccc(-n2cnc(C3CC3)n2)cc1C(=O)N1C[C@H](C)Oc2c(Cl)cccc21 [Compound 103],Wheat plant response rating,[1]; [33],10
same,"Plant response rating, Wheat",[1]; [34],30
same,"Plant response rating, Goosegrass",[2]; [30],100
same,"Plant response rating, Goosegrass",[2]; [31],100
same,Galium plant response rating,[3]; [33],100
same,"Plant response rating, Galium",[3]; [34],100
same,"Plant response rating, Pigweed, Palmer",[4]; [30],90
same,"Plant response rating, Pigweed, Palmer",[4]; [31],100
same,"Plant response rating, Sedge, Umbrella",[5],100
same,"Ryegrass, Italian plant response rating",[6]; [33],50
same,"Plant response rating, Ryegrass, Italian",[6]; [34],60
same,Ragweed plant response rating,[7]; [33],0
same,"Plant response rating, Ragweed",[7]; [34],40
same,"Plant response rating, Ducksalad",[8],35
same,"Plant response rating, Ryegrass, Italian",[9]; [30],80
same,"Plant response rating, Ryegrass, Italian",[9]; [31],90
same,"Plant response rating, Oat, Wild",[10]; [30],40
same,"Plant response rating, Oat, Wild",[10]; [31],40
same,"Plant response rating, Corn",[11]; [30],20
same,"Plant response rating, Corn",[11]; [31],20
same,"Plant response rating, Soybean",[12]; [30],30
same,"Plant response rating, Soybean",[12]; [31],60
same,"Plant response rating, Ragweed",[13]; [30],0
same,"Plant response rating, Ragweed",[13]; [31],0
same,Corn plant response rating,[14]; [33],10
same,"Plant response rating, Corn",[14]; [34],80
same,Horseweed plant response rating,[15]; [33],0
same,"Plant response rating, Horseweed",[15]; [34],10
same,Soybean plant response rating,[16]; [33],100
same,"Plant response rating, Soybean",[16]; [34],100
same,"Plant response rating, Foxtail, Giant",[17]; [30],100
same,"Plant response rating, Foxtail, Giant",[17]; [31],100
same,"Foxtail, Giant plant response rating",[18]; [33],90
same,"Plant response rating, Foxtail, Giant",[18]; [34],90
same,Blackgrass plant response rating,[19]; [33],60
same,"Plant response rating, Blackgrass",[19]; [34],90
same,"Plant response rating, Kochia",[20]; [30],50
same,"Plant response rating, Kochia",[20]; [31],90
same,"Plant response rating, Wheat",[21]; [30],0
same,"Plant response rating, Wheat",[21]; [31],0
same,"Pigweed, Palmer plant response rating",[22]; [33],90
same,"Plant response rating, Pigweed, Palmer",[22]; [34],100
same,Kochia plant response rating,[23]; [33],80
same,"Plant response rating, Kochia",[23]; [34],100
same,"Oat, Wild plant response rating",[24]; [33],30
same,"Plant response rating, Oat, Wild",[24]; [34],80
same,"Plant response rating, Rice",[25],10
same,"Plant response rating, Blackgrass",[26]; [30],50
same,"Plant response rating, Blackgrass",[26]; [31],80
same,Goosegrass plant response rating,[27]; [33],70
same,"Plant response rating, Goosegrass",[27]; [34],100
same,"Plant response rating, Barnyardgrass",[28],20
Cc1cccc2c1O[C@@H](C)CN2C(=O)c1cc(-n2cncn2)ccc1Cl [Compound 60],"Plant response rating, Wheat",[1]; [32],30
same,"Plant response rating, Wheat",[1]; [29],60
same,"Plant response rating, Goosegrass",[2]; [30],100
same,"Plant response rating, Goosegrass",[2]; [31],100
same,"Plant response rating, Galium",[3]; [32],90
same,"Plant response rating, Galium",[3]; [29],100
same,"Plant response rating, Pigweed, Palmer",[4]; [30],30
same,"Plant response rating, Pigweed, Palmer",[4]; [31],90
same,"Plant response rating, Sedge, Umbrella",[5],35
same,"Plant response rating, Ryegrass, Italian",[6]; [32],0
same,"Plant response rating, Ryegrass, Italian",[6]; [29],60
same,"Plant response rating, Ragweed",[7]; [32],20
same,"Plant response rating, Ragweed",[7]; [29],50
same,"Plant response rating, Ducksalad",[8],45
same,"Plant response rating, Ryegrass, Italian",[9]; [30],100
same,"Plant response rating, Ryegrass, Italian",[9]; [31],100
same,"Plant response rating, Oat, Wild",[10]; [30],0
same,"Plant response rating, Oat, Wild",[10]; [31],0
same,"Plant response rating, Corn",[11]; [30],20
same,"Plant response rating, Corn",[11]; [31],30
same,"Plant response rating, Soybean",[12]; [30],40
same,"Plant response rating, Soybean",[12]; [31],100
same,"Plant response rating, Ragweed",[13]; [30],0
same,"Plant response rating, Ragweed",[13]; [31],20
same,"Plant response rating, Corn",[14]; [32],30
same,"Plant response rating, Corn",[14]; [29],80
same,"Plant response rating, Horseweed",[15]; [32],0
same,"Plant response rating, Horseweed",[15]; [29],0
same,"Plant response rating, Soybean",[16]; [32],100
same,"Plant response rating, Soybean",[16]; [29],100
same,"Plant response rating, Foxtail, Giant",[17]; [30],100
same,"Plant response rating, Foxtail, Giant",[17]; [31],100
same,"Plant response rating, Foxtail, Giant",[18]; [32],90
same,"Plant response rating, Foxtail, Giant",[18]; [29],90
same,"Plant response rating, Blackgrass",[19]; [32],10
same,"Plant response rating, Blackgrass",[19]; [29],60
same,"Plant response rating, Kochia",[20]; [30],0
same,"Plant response rating, Kochia",[20]; [31],30
same,"Plant response rating, Wheat",[21]; [30],0
same,"Plant response rating, Wheat",[21]; [31],30
same,"Plant response rating, Pigweed, Palmer",[22]; [32],20
same,"Plant response rating, Pigweed, Palmer",[22]; [29],50
same,"Plant response rating, Kochia",[23]; [32],20
same,"Plant response rating, Kochia",[23]; [29],70
same,"Plant response rating, Oat, Wild",[24]; [32],50
same,"Plant response rating, Oat, Wild",[24]; [29],90
same,"Plant response rating, Rice",[25],0
same,"Plant response rating, Blackgrass",[26]; [30],20
same,"Plant response rating, Blackgrass",[26]; [31],70
same,"Plant response rating, Goosegrass",[27]; [32],10
same,"Plant response rating, Goosegrass",[27]; [29],80
same,"Plant response rating, Barnyardgrass",[28],15
